This is an account of results in patent US20110039763A1, “TARGETED ANTIMICROBIAL MOIETIES” (C3 JIAN, INC., priority 2009, published 2011).

Assay [1] concerns microorganisms. Kind of assay: Peptide activities: targeting/binding, antimicrobial, growth or phenotype altering (Tables 7, 8). The format is cell-based. The note with it: peptides having multiple activities.
Assay [2] relates to microorganisms. The assay can be described thus: Targeting peptide binding to target microorganisms (Tables 3, 10, 12). The note with it: microorganism(s) the targeting peptide binds; binding in aqueous buffers varied with peptide solubility, preferably 1x PBS.
In assay [3] the test system is microorganisms. The assay can be described thus: Morphology, biofilm and growth disrupting peptides (Table 5). The format is cell-based. Set-up: key: A: Peptide aggregates; B: Less hyphal formation; Clumps; Diffuse clumps and small polyps; F: Diffuse growth; H: Thin; I: Growth inhibition; Microcolony formation; Rippled; Small polyps; Thick; W: Halo formation on top, microlonies on bottom. The text has this: In certain embodiments peptides that induce alterations in phenotype or other biological activities can also be used as antimicrobial effector moieties.

“Also recorded” adds a separate entry of the source.

For “PF-417: peptide having multiple activities (chain 1 DSYFRS; chain 2 DSYFRS; Peptide with targeting and/or antimicrobial activity)”, the Activities result in the assay with microorganisms [1] is given as “G B”. In the assay with microorganisms [2], the “Target(s)” value was “S. epidermidis; also recorded: C. jeikeium; also recorded: C. jejuni”. The “Organism, effect: MRSA” value in the assay on microorganisms [3] (MRSA) is given as “MRSA (M)”. In addition, the “Organism, effect: S. epidermidis” value in the assay on microorganisms [3] (S. epidermidis) is recorded as “S. epidermidis (M)”. Moreover, in the assay with microorganisms [3] (S. pneumoniae), the “Organism, effect: S. pneumoniae” value is “S. pneumoniae (M)”.

Turning to “PF-421: peptide having multiple activities (chain 1 KHCFEITDKTDVV; chain 2 KHCFEITDKTDVV; Peptide with targeting and/or antimicrobial activity)”, in the assay with microorganisms [1], the Activities result is “G B”. In addition, in the assay with microorganisms [2], the “Target(s)” value is listed as “C. jeikeium”. Besides, the “Organism, effect” value in the assay with microorganisms [3] (S. pneumoniae) is “S. pneumoniae (H)”.

Take “PF-423: peptide having multiple activities (chain 1 AGKKERLLSFREQFLNKNKKK; chain 2 AGKKERLLSFREQFLNKNKKK; Peptide with targeting and/or antimicrobial activity)”: in the assay on microorganisms [1], the Activities entry is given as “G B”. In the assay on microorganisms [2], the “Target(s)” value is listed as “S. epidermidis; also recorded: M. luteus; also recorded: E. coli; also recorded: S. pneumoniae; also recorded: E. faecalis; also recorded: C. jeikeium”. Besides, the “Organism, effect” value with microorganisms [3] (S. pneumoniae) is reported as “S. pneumoniae (H)”.

For “PF-424: peptide having multiple activities (chain 1 IAAFVTSRAFSDTVSPI; chain 2 IAAFVTSRAFSDTVSPI; Peptide with targeting and/or antimicrobial activity)”, the Activities result in the assay with microorganisms [1] is listed as “G B”. Also, the “Target(s)” value in the assay on microorganisms [2] was “S. epidermidis and C. albicans and MRSA”. In the assay on microorganisms [3] (S. pneumoniae), the “Organism, effect” value is “S. pneumoniae (H)”.

Turning to “PF-425: peptide having multiple activities (chain 1 MMELVLKTIIGPIVVGVVLRIVDKWLNKDK; chain 2 MMELVLKTIIGPIVVGVVLRIVDKWLNKDK; Peptide with targeting and/or antimicrobial activity)”, the Activities result with microorganisms [1] was “G B”. Besides, the “Target(s)” value with microorganisms [2] was “S. epidermidis and M. luteus and E. coli and P. aeruginosa and C. albicans and MRSA and S. pneumoniae and C. jeikeium”. Moreover, the “Organism, effect” value in the assay with microorganisms [3] (C. albicans) is on record as “C. albicans (A)”; with microorganisms [3] (C. jejuni), “C. jejuni (D)”; in the assay on microorganisms [3] (E. coli) it was “E. coli (C)”; in the assay with microorganisms [3] (E. faecalis), “E. faecalis (D)”; with microorganisms [3] (MRSA) it was “MRSA (D)”; in the assay with microorganisms [3] (P. aeruginosa) it was “P. aeruginosa (A)”. The “Organism, effect” value is recorded as “S. epidermidis (D)” in the assay on microorganisms [3] (S. epidermidis) and “S. pneumoniae (D)” with microorganisms [3] (S. pneumoniae).

Consider “PF-426: peptide having multiple activities (chain 1 MLQKYTQMISVTKCIITKNKKTQENVDAYN; chain 2 MLQKYTQMISVTKCIITKNKKTQENVDAYN; Peptide with targeting and/or antimicrobial activity)”, for which the Activities result with microorganisms [1] is reported as “G B”. For the same substance, in the assay on microorganisms [2], the “Target(s)” value was “S. epidermidis and E. coli and P. aeruginosa and C. albicans and MRSA and S. pneumoniae and E. faecalis and C. jeikeium”. Also, the “Organism, effect” value with microorganisms [3] (C. albicans) is reported as “C. albicans (A)”; in the assay with microorganisms [3] (C. jejuni), “C. jejuni (D)”; in the assay with microorganisms [3] (E. coli), “E. coli (C)”; in the assay on microorganisms [3] (E. faecalis), “E. faecalis (D)”; with microorganisms [3] (MRSA) it was “MRSA (D)”; in the assay on microorganisms [3] (S. epidermidis), “S. epidermidis (D)”. Besides, in the assay on microorganisms [3] (S. pneumoniae), the “Organism, effect” value was “S. pneumoniae (D)”.

For “PF-427: peptide having multiple activities (chain 1 YVLEYHGLRATQDVDAFMAL; chain 2 YVLEYHGLRATQDVDAFMAL; Peptide with targeting and/or antimicrobial activity)”, in the assay on microorganisms [1], the Activities entry is “G B”. Also, the “Target(s)” value in the assay with microorganisms [2] is listed as “M. luteus; also recorded: P. aeruginosa; also recorded: C. albicans; also recorded: C. jejuni”. Moreover, the “Organism, effect” value in the assay on microorganisms [3] (E. coli) is recorded as “E. coli (C)”; in the assay with microorganisms [3] (E. faecalis) it was “E. faecalis (C)”; with microorganisms [3] (MRSA) it was “MRSA (C)”; in the assay on microorganisms [3] (S. pneumoniae) it was “S. pneumoniae (R)”.

Regarding “PF-428: peptide having multiple activities (chain 1 ENEESIF; chain 2 ENEESIF; Peptide with targeting and/or antimicrobial activity)”, the Activities result in the assay on microorganisms [1] is recorded as “G B”. In the assay on microorganisms [2], the “Target(s)” value is “S. epidermidis; also recorded: C. albicans; also recorded: E. faecalis; also recorded: C. jeikeium”. Moreover, in the assay on microorganisms [3] (S. pneumoniae), the “Organism, effect” value was “S. pneumoniae (H)”.

Consider “PF-429: peptide having multiple activities (chain 1 AATLICVGSGIMSSL; chain 2 AATLICVGSGIMSSL; Peptide with targeting and/or antimicrobial activity)”, for which the Activities entry in the assay with microorganisms [1] is “G B”. In addition, the “Target(s)” value in the assay on microorganisms [2] is “S. epidermidis; also recorded: S. pneumoniae; also recorded: C. jeikeium”. Moreover, the “Organism, effect” value with microorganisms [3] (E. faecalis) was “E. faecalis (C)”; with microorganisms [3] (MRSA), “MRSA (C)”; in the assay with microorganisms [3] (S. epidermidis) it was “S. epidermidis (C)”; in the assay with microorganisms [3] (S. pneumoniae), “S. pneumoniae (M)”.

Regarding “PF-430: peptide having multiple activities (chain 1 AVVCGYLAYTATS; chain 2 AVVCGYLAYTATS; Peptide with targeting and/or antimicrobial activity)”, in the assay on microorganisms [1], the Activities result is listed as “G B”. Moreover, in the assay with microorganisms [2], the “Target(s)” value is recorded as “S. epidermidis; also recorded: M. luteus; also recorded: E. coli; also recorded: S. pneumoniae; also recorded: E. faecalis; also recorded: C. jeikeium; also recorded: C. jejuni”. For the same substance, the “Organism, effect” value was “MRSA (M)” in the assay on microorganisms [3] (MRSA), “S. epidermidis (M)” in the assay on microorganisms [3] (S. epidermidis) and “S. pneumoniae (M)” in the assay with microorganisms [3] (S. pneumoniae).

“PF-433: peptide having multiple activities (chain 1 MRKEFHNVLSSGQLLADKRPARDYNRK; chain 2 MRKEFHNVLSSGQLLADKRPARDYNRK; Peptide with targeting and/or antimicrobial activity)”: the Activities result with microorganisms [1] is on record as “G B”. The “Target(s)” value with microorganisms [2] was “S. epidermidis; also recorded: E. coli; also recorded: S. pneumoniae; also recorded: C. jeikeium”. The “Organism, effect” value in the assay with microorganisms [3] (S. pneumoniae) is given as “S. pneumoniae (H)”.

On to “PF-434: peptide having multiple activities (chain 1 GQLLADKRPARDYNRK; chain 2 GQLLADKRPARDYNRK; Peptide with targeting and/or antimicrobial activity)”, for which the Activities entry with microorganisms [1] was “G B”. For the same substance, the “Target(s)” value with microorganisms [2] is given as “S. epidermidis; also recorded: M. luteus; also recorded: S. pneumoniae; also recorded: C. jeikeium”. Further, the “Organism, effect” value in the assay with microorganisms [3] (S. pneumoniae) was “S. pneumoniae (S)”.

“PF-444: peptide having multiple activities (MAAKLWEEGKMVYASSASMTKRLKLAMSKV; Peptide with targeting and/or antimicrobial activity)”: the Activities result in the assay with microorganisms [1] was “G B”. In addition, the “Target(s)” value in the assay on microorganisms [2] is “M. luteus; also recorded: C. albicans; also recorded: S. pneumoniae; also recorded: C. jeikeium”. The “Organism, effect” value in the assay with microorganisms [3] (E. coli) was “E. coli (R)”; in the assay on microorganisms [3] (E. faecalis) it was “E. faecalis (C)”; in the assay with microorganisms [3] (MRSA), “MRSA (C)”; in the assay on microorganisms [3] (S. epidermidis) it was “S. epidermidis (C)”; in the assay on microorganisms [3] (S. pneumoniae), “S. pneumoniae (R)”.

As for “PF-445: peptide having multiple activities (ASMTKRLKLAMSKV; Peptide with targeting and/or antimicrobial activity)”, in the assay on microorganisms [1], the Activities entry was “G B”. The “Target(s)” value in the assay on microorganisms [2] is listed as “M. luteus; also recorded: S. pneumoniae; also recorded: C. jeikeium”. For the same substance, the “Organism, effect” value in the assay on microorganisms [3] (S. pneumoniae) was “S. pneumoniae (M)”.

For the substance “PF-446: peptide having multiple activities (SGNEKV; Peptide with targeting and/or antimicrobial activity)”, the Activities entry in the assay on microorganisms [1] is listed as “G B”. The “Target(s)” value with microorganisms [2] is “M. luteus; also recorded: C. jeikeium”. Also, in the assay with microorganisms [3] (S. pneumoniae), the “Organism, effect” value is given as “S. pneumoniae (H)”.

Take “PF-447: peptide having multiple activities (IDKSRNKDQFSHIFGLYNICSG; Peptide with targeting and/or antimicrobial activity)”: in the assay on microorganisms [1], the Activities result is on record as “G B”. For the same substance, in the assay with microorganisms [2], the “Target(s)” value is listed as “S. epidermidis; also recorded: M. luteus; also recorded: E. coli; also recorded: S. pneumoniae”. Moreover, the “Organism, effect” value is recorded as “E. faecalis (C)” in the assay with microorganisms [3] (E. faecalis), “MRSA (C)” in the assay with microorganisms [3] (MRSA), “S. epidermidis (C)” in the assay with microorganisms [3] (S. epidermidis) and “S. pneumoniae (C)” with microorganisms [3] (S. pneumoniae).

Take “PF-452: peptide having multiple activities (MNNWIKVAQISVTVINEVIDIMKEKQNGGK; Peptide with targeting and/or antimicrobial activity)”: in the assay with microorganisms [1], the Activities result was “G B”. Besides, the “Target(s)” value in the assay on microorganisms [2] is on record as “M. luteus; also recorded: P. aeruginosa; also recorded: C. albicans; also recorded: S. pneumoniae; also recorded: E. faecalis; also recorded: C. jeikeium; also recorded: M. smegmatis”. In addition, the “Organism, effect” value is on record as “E. coli (C)” with microorganisms [3] (E. coli); “E. faecalis (C)” in the assay with microorganisms [3] (E. faecalis); “MRSA (C)” in the assay on microorganisms [3] (MRSA); “S. epidermidis (C)” in the assay with microorganisms [3] (S. epidermidis); “S. pneumoniae (R)” with microorganisms [3] (S. pneumoniae).
